Key:
[1] = system: premature termination codons (PTC); settings: genetic disorders with premature termination codons; Welch E M et al, Nature 2007; cited from earlier work
[2] = system: CHO cells; assay: Live cell tRNA:tRNA FRET imaging before and after cycloheximide treatment; type: cell-based; settings: CHO cells transfected with rhodamine 110 (donor) and Cy3 (acceptor) labeled bulk yeast tRNA; same cells imaged prior to and following treatment
Procedure: (§1) Fluorescent labeled tRNA were then introduced into live HEK-293, HeLa and CHO cells, employing a transfection protocol. One day prior to the transfection experiment, the cells were seeded on fibronectin-coated glass slides in a 24-well plate. On the following day, the growth medium was removed and 0.5 ml of fresh medium was added to each well containing the sub-confluent monolayers. 10 minutes later, 0.1 ml of the labeled-tRNA mixed with the transfection reagent and serum-free media were added to each well. The plate was incubated at 37° C. in a 5% CO2 incubator for 6-8 hr, followed by fixation with 4% paraformaldehyde for 20 min and mounting using fluorescent mounting medium. The fixed cells on glass slides were then visualized employing a spinning disk confocal microscope.
(§2) In order to determine the imaging parameters to be employed in the following experiments, including the degree of non-specific signal stemming from the cross-stimulation of different fluorophores, cells were transfected with donor only and with acceptor only, and imaged in the exact conditions employed for the FRET measurement. The calibration coefficients for computing the NFret (corrected FRET) image were NFret=FRET−0.011*donor−0.004*acceptor. […]

[3] = system: HEK cells; assay: as above; type: cell-based; settings: HEK cells transfected with rhodamine 110 (donor) and Cy3 (acceptor) labeled bulk yeast tRNA; same cells imaged prior to and following treatment
Procedure: as §1, §2

SMILES | amount of required protein produced [1] | FRET signal intensity [2] | FRET signal intensity [3]
O=C(O)c1cccc(-c2noc(-c3ccccc3F)n2)c1 [PTC124] | 1-5 % of normal concentrations |  | 
C[C@@H]1C[C@@H]([C@H](O)CC2CC(=O)NC(=O)C2)C(=O)[C@@H](C)C1 [cycloheximide] |  | increase in FRET signal intensity | increase in FRET signal intensity

From patent publication US9034576B2, “Systems and methods for measuring translation of target proteins in cells” (ANIMA CELL METROLOGY INC., priority 2009, dated 2015)
